Results as given in patent publication US20090233999A1, “COMPOSITIONS AND THERAPEUTIC METHODS INVOLVING ISOFLAVONES AND ANALOGUES THEREOF” (NOVOGEN RESEARCH PTY LTD, priority 1999, published 2009).

How the values were obtained:
NFκB = NFκB promoter activity, beta-lactamase reporter THP-1 cells stimulated with TNFα; type: cell-based; settings: 30 μM; TNFα-stimulated THP-1 cells
Experimental: The assay utilised a genetically modified THP-1 cell line containing a stably-transfected beta-lactamase reporter gene under control of the NFkB response element and GeneBLAzer® beta-lactamase technology (Invitrogen Corp). The cells respond to stimulation with TNFα, causing activation of the NFκB signaling pathway. Co-incubation of cells with TNFα and test material allows quantitative determination of the ability of test material to inhibit TNFa-stimulated beta-lactamase production. An inflammatory index was calculated as the ratio of beta-lactamase product to beta-lactamase substrate.
THP-1 cells were seeded into wells of a 96-well plate in the presence of RPMI 1640 medium. TNFα was added to each well to give a final concentration of 7.5 ng/ml and dialyzed bovine serum was added. Compounds dissolved in DMSO were then added. Each plate also contained no-cell controls, no-serum controls and serum controls. Plates were incubated for 5 h at 37° C. to allow for NFκB-stimulated beta-lactamase production. LiveBLAzer™ FRET B/G Substrate (CCF4-AM) substrate was then added to assay. Once CCFA-AM enters a cell, it is converted to negatively charged CCF4 by endogenous esterases. Excitation of this substrate at 409 nm leads to efficient FRET between the coumarin and fluorescein moieties, resulting in a green fluorescence detectable at 530 nm. The presence of beta-lactamase leads to cleavage of CCF4 and results in a loss of FRET, resulting in a robust blue fluorescent signal detectable at 460 nm. Thus, activity of beta-lactamase (a marker of NFκB-promoter activity) is measured as a product to substrate ratio (blue/green fluorescence ratio: 460 nm/530 nm).

5-LO (LTB4 synthesis) = experiment: Synthesis of LTB4 and metabolites by neutrophils (lipoxygenase); type: cell-based; settings: Neutrophil; calcium ionophore-stimulated human neutrophils
Experimental: The pathway for LTB4 synthesis involves initial release of AA from phospholipids by a Ca-dependent PLA2. The free AA is then oxygenated at by 5-LO (requiring enzyme activation by FLAP) to generate an epoxide intermediate (LTA4). LTA4 is then converted to LTB4 by LTA4 hydrolase. LTB4 is metabolised (and deactivated) by a cytochrome P-(CYP) 450 […] to produce 20-hydroxy and 20-carboxy metabolites. These metabolites are also measured in the HPLC assay.
Neutrophils were isolated from citrated human venous blood to >90% purity by centrifugation through Ficoll, dextran sedimentation and lysis of erythrocytes. Cells were washed in HEPES buffered Hanks solution (HBHS) and then suspended at 4.5 million cells/mL in HBHS containing 0.1% bovine serum albumin (HBHS+BSA).
Experiments had been carried out previously to optimise the stimulation of neutrophils by calcium ionophore. At 37° C., cells were incubated with the test compound in 10 μL DMSO for 5 min before addition of 100 μL of 25 ng/μL calcium ionophore (free acid form, Sigma) with 0.5% DMSO in HBHS+BSA. The cells were incubated for 10 min then pelleted by centrifugation at 4° C. for 5 min and the cell free supernatant used to quantitate the levels of LTB4 and its metabolites.
To each 900 μL aliquot of the supernatant, 25 μL of prostaglandin B2 (PGB2) 2.5 ng/μL in ethanol was added as internal standard. The solution was acidified to pH≦3 with 2M formic acid and the mixture extracted with 2 mL ethyl acetate and vigorous vortexing. The organic layer was collected and dried under nitrogen in a glass vial before reconstituted in 50 μL of the reconstitution solution (water:methanol:acetonitrile at 2:1:1).
Analysis was carried out using an HPLC system with a 125-4 LiChrospher®100 RP-18 (5 μm) column (Agilent Technologies) and a gradient system adapted from a published method to separate LTB4, its oxidation products 20-hydroxy LTB4 (20-OH-LTB4) and 20-carboxy LTB4 (20-COOH-LTB4), as well as PGB2. At 1 ml/min flow rate, a combination of three different mobile phase solutions was used:
A (water:methanol:acetonitrile:trifluoroacetic acid at 80:40:40:0.1, pH=3 with Et3N), B (methanol:acetonitrile at 1:1), and C (methanol).
UV absorbance was monitored at 270 nm, and LTB4 and its metabolites were quantitated by comparison of peak areas with that of internal standard and a standard curve prepared earlier.

TNFα = experiment: LPS-induced TNFα synthesis in human monocytes; type: cell-based; settings: 100 μM
Experimental: Test compounds (in DMSO) at 100, 10, and 1 μmol/ were incubated with monocytes at 37° C. for 30 min after which LPS was added (200 ng/ml) and cells were incubated in triplicate for 18 h at 37° C. in 5% CO2. […], supernatants were removed and TNFα measured by ELISA previously described.

[1] = tested on: splenocytes (T and B cells); experiment: Murine splenocyte viability and proliferation (Con A, LPS, no mitogen; MTT); type: cell-based, mouse; settings: 10 μM, 3 day; for proliferation of T and B cells: Con A / LPS; for effect on non-proliferating (resting) splenocytes: no mitogen
Experimental: (§1) Male Skh-1 (hairless) mice, approximately six weeks old were killed by cervical dislocation. Single cell suspensions were made from the spleen and erythrocytes were lysed in buffer (0.14M NH4Cl, 17 mM Tris, pH 7.2). The remaining splenocytes were cultured in RPMI-1640 (Gibco) supplemented with 10% (v:v) FBS, 2 mM L-glutamine, pen/strep and 50 μM 2-mercaptoethanol. Splenocytes were added to quadruplicate wells containing either the T cell mitogen concanavalin A (Con A, Sigma-Aldrich—0. 4 μg/well), the B-cell mitogen LPS (Sigma-Aldrich—1 μg/well) or no mitogen, as well as test compound at a concentration of 10 μM in DMSO. Samples were analysed after a 3 day incubation at 37° C. in 5% CO2 in air. Cell viability was assessed by adding MTT to each well, incubating for a further 4 hrs and then developing colour with 0.04N HCl in isopropanol. Supernatant samples were frozen at −80° C. and IL-6, IFN-γ and TNFα were detected in triplicate using ELISA kits (BD Biosciences).

IL-6 = IL-6 production by murine splenocytes; type: cell-based, mouse; settings: 10 μM; Con A
Experimental: as §1

rat aortic ring = experiment: Rat aortic ring assay, contractile response to noradrenaline; settings: 1 μg/ml
Experimental: The vasodilatory capacity was examined ex vivo using the rat aortic ring assay.
Male Sprague-Dawley rats (250±50 g) were euthanased with 80% CO2 and 20% O2. The thoracic aorta was excised and quickly mounted in organ-baths as described. Full concentration-contractile curves were obtained to noradrenaline (0.1 nM-[…]) with and without test compounds delivered at a concentration of 1 μg/ml. Experiments were repeated in n=5 different rings from 5 different animals. Only one compound at any one concentration was tested on any one ring from any one animal. Sigmoidal dose response curves were fitted for the data and the logEC50 and the Ema, calculated (Prism 4, GraphPad Software). The difference in these values between the presence and absence of test compound was calculated using a two-tailed paired t test. The effects of β-oestrodiol and vehicle alone were examined as a positive and negative control respectively.

SMILES | IC50 (5-LO (LTB4 synthesis)) | NFκB promoter activity (NFκB) | synthesis of TNFα (TNFα) | proliferation of T and B cells [1] | effect on non-proliferating (resting) splenocytes [1] | IL-6 production in T cells (IL-6) | contractile response (logEC50) of the aortic ring to noradrenaline (rat aortic ring) | strength of the contractile response (Emax) (rat aortic ring)
COc1cccc(C2=Cc3ccc(O)cc3OC2)c1 [Cpd. 16, 7-Hydroxy-3′-methoxyisoflav-3-ene] | 2.2 µM | – | – | augmented | augmented | reduced | – | –
Oc1ccc(C2=Cc3ccc(O)c(Br)c3OC2)cc1 [Cpd. 20, 4′,7-Dihydroxy-8-bromoisoflav-3-ene] | 0.9 µM | significantly inhibited | – | inhibited | suppressive | most marked | significantly inhibited | reduced
Oc1ccc2c(c1)OCC(c1ccc(Br)cc1)=C2 [Cpd. 21, 4′-Bromo-7-hydroxyisoflav-3-ene] | – | – | – | – | – | – | inhibited | –

Now from value to compound, other results behind:

IC50 (5-LO (LTB4 synthesis)) | SMILES | NFκB promoter activity (NFκB) | synthesis of TNFα (TNFα) | proliferation of T and B cells [1] | effect on non-proliferating (resting) splenocytes [1] | IL-6 production in T cells (IL-6) | contractile response (logEC50) of the aortic ring to noradrenaline (rat aortic ring) | strength of the contractile response (Emax) (rat aortic ring)
< 0.1 µM | Cc1c(O)ccc2c1OCC(c1cccc(O)c1)=C2 [Cpd. 14, 3′,7-Dihydroxy-8-methylisoflav-3-ene] | significantly inhibited | inhibited | augmented | augmented | – | – | –
0.5 µM | COc1ccc(C2=Cc3ccc(O)cc3OC2)cc1OC [Cpd. 18, 7-Hydroxy-3′,4′-dimethoxyisoflav-3-ene] | significantly inhibited | inhibited | – | – | reduced | inhibited | –
0.3 µM | COc1ccc(C2=Cc3ccc(O)c(C)c3OC2)cc1OC [Cpd. 19, 7-Hydroxy-3′,4′-dimethoxy-8-methylisoflav-3-ene] | significantly inhibited | inhibited | – | – | reduced | – | –
